The values that follow come from US20190343801A1, “COMPOSITIONS AND METHODS FOR CONTROLLING NATURAL KILLER CELL ACTIVATION AND FUNCTION” (BAR ILAN UNIVERSITY, priority 2017, published 2019).

For the experiment, the system named is F-actin retrograde flow in YTS and pNK F-tractin GFP cells. Description: Live cell imaging and kymograph analysis of F-actin retrograde flow (ARF) in F-tractin GFP NK cells. The conditions noted are these: 25 μM Y-27, activating vs. inhibitory NKIS. It counts as cell-based. The text has this:
FIGS. […] In FIG. 5A, YTS F-tractin GFP cells were dropped over coverslips coated with anti-CD28 or anti-KIR1 antibodies, and imaged at 1 frame/sec through a single focal plane. […] Representative images are shown. Kymographs of F-actin dynamics were compiled along the contact site radius. […]
The y axis represents F-actin velocity (μm/sec), and the x axis—time from initial spreading (sec).
FIGS. 5E-5H. show analyses of NKIS area and ARF in the activating vs. inhibitory NKIS in the presence of Y-27632 (Y-27) inhibitor of myosin light chain (MLC) phosphorylation and/or JAS. […] NKIS area was determined using ImageJ. […]
Analyses of actin and SHP-1 dynamics were performed by preparing kymographs from live cell videos and tracing the movement of the fluorescently tagged proteins. […] Velocity over distance from the center was determined by calculating the velocity of the tracked protein based on the distance traversed to time between each two points on the trace, and noting the relative location from the center of the measured area. […] For each bin, average velocity and standard error were calculated. Average distance traversed over time was calculated by measuring the location of the trace, relative to its point of origin at each time point after the beginning of the trace. For each relative time point from the beginning of a trace, an average distance and standard error were calculated. […]

Structures can show the parent of a compound that is named as a salt.

Turning to `C[C@@H](N)C1CCC(C(=O)Nc2ccncc2)CC1` (stereo partly drawn) [Formula Y-27, 4-[(1R)-1-aminoethyl]-N N-4-pyridinyl-trans-cyclohexanecarboxamide, dihydrochloride], the F-actin flow result is given as “complete arrest of F-actin flow”.
